# Results: patent US20240277713A1 (Kadmon Corporation, LLC, priority 2022, published 2024)
# Like-named read-outs stand apart in the source and are kept apart here. Marks after values point to notes of the source that are not given here.
# Legend:
# Sprague-Dawley rats = assay: Embryo-fetal developmental toxicity study in Sprague-Dawley rats (Example 3)
# Experimental: For this study, a total of 140 time-mated female rats (approximately 8 to 10 weeks of age) were obtained from Charles River Laboratories, Raleigh, North Carolina, and acclimated from the time of arrival until the time of dosing on GD 6. During the acclimation period, the animals were observed twice daily with respect to general health and any signs of disease. All animals were given a detailed clinical examination and body weights were recorded prior to selection. […] Food consumption was collected during the acclimation period.
# Animals received in-life and postmorten evaluations. […] All fetuses were given an external and visceral or skeletal examination.
# Detailed clinical observations were made daily from GD 6 through 20 (4 hours±1 hour postdose on dosing days).
# Food consumption for main study animals was measured and recorded on the corresponding body weight days and calculated for the same intervals.
# The placentae were examined grossly.
# The foci, if detected, were considered early resorptions, and data from this female were included in mean calculations
# CYP2D6 = CYP2D6 (Homo sapiens, UniProt P10635); assay: Enzyme systems in vitro: CYP2D6; type: in vitro ADME
# CYP2D6, sequence (P10635 whole entry): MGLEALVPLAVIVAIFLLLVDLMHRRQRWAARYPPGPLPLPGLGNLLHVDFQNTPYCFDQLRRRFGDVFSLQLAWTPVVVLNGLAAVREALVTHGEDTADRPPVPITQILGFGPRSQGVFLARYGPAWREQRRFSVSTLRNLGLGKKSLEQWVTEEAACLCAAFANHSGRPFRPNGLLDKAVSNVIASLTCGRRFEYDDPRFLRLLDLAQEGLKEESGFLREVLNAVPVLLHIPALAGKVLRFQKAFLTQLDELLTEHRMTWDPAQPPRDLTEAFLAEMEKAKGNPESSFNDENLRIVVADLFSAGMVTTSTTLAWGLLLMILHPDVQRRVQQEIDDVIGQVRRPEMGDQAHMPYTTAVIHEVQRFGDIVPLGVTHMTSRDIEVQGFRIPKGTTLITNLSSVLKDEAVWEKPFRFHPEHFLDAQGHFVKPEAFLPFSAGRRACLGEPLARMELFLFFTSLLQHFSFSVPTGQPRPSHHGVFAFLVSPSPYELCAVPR
# [1] = Toxicokinetic evaluation in pregnant rats (Example 3); type: in vivo, rat; settings: for Cmax / AUC(0-t): female, Sprague-Dawley, rat, plasma, po; for AUC(0-t): read-out: Mean AUC0-24 in plasma of pregnant rats
# Description: Animals received in-life and postmorten evaluations.
# [2] = 15 mg/kg/day, GD 6, belumosudil 15 mg base/kg oral
# [3] = 15 mg/kg/day, GD 17, belumosudil 15 mg base/kg oral
# [4] = 50 mg/kg/day, GD 6, belumosudil 50 mg base/kg oral
# [5] = 50 mg/kg/day, GD 17, belumosudil 50 mg base/kg oral
# [6] = 150 mg/kg/day, GD 6, belumosudil 150 mg base/kg oral
# [7] = 150 mg/kg/day, GD 17, belumosudil 150 mg base/kg oral
smiles,measurement,setting,value
"CC(C)NC(=O)COc1cccc(-c2nc(Nc3ccc4[nH]ncc4c3)c3ccccc3n2)c1 [belumosudil, 2-{3-[4-(1H-indazol-5-ylamino)-2-quinazolinyl]phenoxy}-N-(propan-2-yl) acetamide]","Hair sparse, Forelimb/right, times observed/animals","Sprague-Dawley rats; 50 mg base/kg/day, GD 6-20",10/2
same,"Hair sparse, Hind limb/left, times observed/animals","Sprague-Dawley rats; 50 mg base/kg/day, GD 6-20",0/0
same,"Hair sparse, Hind limb/right, times observed/animals","Sprague-Dawley rats; 50 mg base/kg/day, GD 6-20",0/0
same,"Hair sparse, Lumbar region, times observed/animals","Sprague-Dawley rats; 50 mg base/kg/day, GD 6-20",0/0
same,"Hair sparse, Thoracic region, times observed/animals","Sprague-Dawley rats; 50 mg base/kg/day, GD 6-20",7/1
same,"Scabbed area, Face, times observed/animals","Sprague-Dawley rats; 50 mg base/kg/day, GD 6-20",0/0
same,"Scabbed area, Forelimb/right, times observed/animals","Sprague-Dawley rats; 50 mg base/kg/day, GD 6-20",0/0
same,"Scabbed area, Tail, times observed/animals","Sprague-Dawley rats; 50 mg base/kg/day, GD 6-20",0/0
same,"Scabbed area, Thoracic region, times observed/animals","Sprague-Dawley rats; 50 mg base/kg/day, GD 6-20",0/0
same,"Tail missing - portion, times observed/animals","Sprague-Dawley rats; 50 mg base/kg/day, GD 6-20",0/0
same,"Fetal Body Weight Females, % Difference From Control",Sprague-Dawley rats; 150 mg base/kg/day,−7.7%
same,"Fetal Body Weight Genders Combined, % Difference From Control",Sprague-Dawley rats; 150 mg base/kg/day,−7.3%
same,"Fetal Body Weight Males, % Difference From Control",Sprague-Dawley rats; 150 mg base/kg/day,−8.0%
same,Maternal Body Weight Change GD 6-9,Sprague-Dawley rats; 150 mg base/kg/day,−4.2^b g
same,Maternal Body Weight Change GD 6-18,Sprague-Dawley rats; 150 mg base/kg/day,55.4^b g
same,Maternal Body Weight Change GD 6-20,Sprague-Dawley rats; 150 mg base/kg/day,97.1^b g
same,Maternal Body Weight Change GD 18-20,Sprague-Dawley rats; 150 mg base/kg/day,41.8^b g
same,Maternal Body Weight GD 9,Sprague-Dawley rats; 150 mg base/kg/day,215.8^b g
same,Maternal Body Weight GD 12,Sprague-Dawley rats; 150 mg base/kg/day,232.1^b g
same,Maternal Body Weight GD 15,Sprague-Dawley rats; 150 mg base/kg/day,244.0^b g
same,Maternal Body Weight GD 18,Sprague-Dawley rats; 150 mg base/kg/day,275.3^b g
same,Maternal Body Weight GD 20,Sprague-Dawley rats; 150 mg base/kg/day,317.0^b g
same,Maternal Food Consumption GD 6-9,Sprague-Dawley rats; 150 mg base/kg/day,10.0^b
same,Maternal Food Consumption GD 6-18,Sprague-Dawley rats; 150 mg base/kg/day,15.4^b
same,Maternal Food Consumption GD 6-20,Sprague-Dawley rats; 150 mg base/kg/day,17.4^b
same,Maternal Food Consumption GD 18-20,Sprague-Dawley rats; 150 mg base/kg/day,29.4
same,Mean Fetal Body Weight Females,Sprague-Dawley rats; 150 mg base/kg/day,3.72 g
same,Mean Fetal Body Weight Genders Combined,Sprague-Dawley rats; 150 mg base/kg/day,3.82 g
same,Mean Fetal Body Weight Males,Sprague-Dawley rats; 150 mg base/kg/day,3.91 g
same,"Adjusted Final Body Weight, Mean",Sprague-Dawley rats; 150 mg base/kg/day (N = 20),252.7^b g
same,"Adjusted Weight Change From Day 6, Mean",Sprague-Dawley rats; 150 mg base/kg/day (N = 20),32.8^b
same,"Final Body Weight, Mean",Sprague-Dawley rats; 150 mg base/kg/day (N = 20),317.0^b g
same,"Gravid Uterine Weight, Mean",Sprague-Dawley rats; 150 mg base/kg/day (N = 20),64.3 g
same,"Discharge, Brown, Vulva, times observed/animals","Sprague-Dawley rats; 150 mg base/kg/day, GD 6-20",4/4
same,"Discharge, Red, Vulva, times observed/animals","Sprague-Dawley rats; 150 mg base/kg/day, GD 6-20",1/1
same,"Ear/portion of ear missing, Ear/left, times observed/animals","Sprague-Dawley rats; 150 mg base/kg/day, GD 6-20",15/1
same,"Hair sparse, Abdominal region, times observed/animals","Sprague-Dawley rats; 150 mg base/kg/day, GD 6-20",0/0
same,"Hair sparse, Cervical region, times observed/animals","Sprague-Dawley rats; 150 mg base/kg/day, GD 6-20",0/0
same,"Hair sparse, Forefoot/left, times observed/animals","Sprague-Dawley rats; 150 mg base/kg/day, GD 6-20",27/3
same,"Hair sparse, Forefoot/right, times observed/animals","Sprague-Dawley rats; 150 mg base/kg/day, GD 6-20",23/3
same,"Hair sparse, Forelimb/left, times observed/animals","Sprague-Dawley rats; 150 mg base/kg/day, GD 6-20",14/2
same,"Hair sparse, Forelimb/right, times observed/animals","Sprague-Dawley rats; 150 mg base/kg/day, GD 6-20",30/3
same,"Hair sparse, Hind limb/left, times observed/animals","Sprague-Dawley rats; 150 mg base/kg/day, GD 6-20",6/1
same,"Hair sparse, Hind limb/right, times observed/animals","Sprague-Dawley rats; 150 mg base/kg/day, GD 6-20",6/1
same,"Hair sparse, Lumbar region, times observed/animals","Sprague-Dawley rats; 150 mg base/kg/day, GD 6-20",12/1
same,"Hair sparse, Thoracic region, times observed/animals","Sprague-Dawley rats; 150 mg base/kg/day, GD 6-20",12/2
same,"Scabbed area, Face, times observed/animals","Sprague-Dawley rats; 150 mg base/kg/day, GD 6-20",0/0
same,"Scabbed area, Forelimb/right, times observed/animals","Sprague-Dawley rats; 150 mg base/kg/day, GD 6-20",0/0
same,"Scabbed area, Tail, times observed/animals","Sprague-Dawley rats; 150 mg base/kg/day, GD 6-20",13/2
same,"Scabbed area, Thoracic region, times observed/animals","Sprague-Dawley rats; 150 mg base/kg/day, GD 6-20",0/0
same,"Tail missing - portion, times observed/animals","Sprague-Dawley rats; 150 mg base/kg/day, GD 6-20",11/1
same,NOAEL for fetal developmental toxicity,Sprague-Dawley rats; pregnant rats,50 mg base/kg/day
same,NOAEL for maternal toxicity,Sprague-Dawley rats; pregnant rats,15 mg base/kg/day
same,mortality,"Sprague-Dawley rats; rat, in vivo",No treatment related mortality
same,CYP2D6 inhibition,CYP2D6,inhibitor
same,Cmax,[1]; [2],1530 ng/mL
same,AUC(0-t),[1]; [2],9750 ng·h/mL
same,Cmax,[1]; [3],1320 ng/mL
same,AUC(0-t),[1]; [3],11900 ng·h/mL
same,Cmax,[1]; [4],3000 ng/mL
same,AUC(0-t),[1]; [4],37700 ng·h/mL
same,Cmax,[1]; [5],4360 ng/mL
same,AUC(0-t),[1]; [5],33300 ng·h/mL
same,Cmax,[1]; [6],5150 ng/mL
same,AUC(0-t),[1]; [6],89400 ng·h/mL
same,Cmax,[1]; [7],7800 ng/mL
same,AUC(0-t),[1]; [7],88300 ng·h/mL
same,accumulation after multiple dosing of belumosudil,[1]; pregnant rats,No apparent accumulation
